Measurements published in ChEMBL document CHEMBL1201862, “PubChem BioAssay data set” (2004).
Activity calls are given as the source filed them.

Assays:
[1] = molecular target: Lysosomal acid glucosylceramidase (Homo sapiens, UniProt P04062); test: Dose response cell-based high throughput screening assay to identify enhancers of beta-glucosidase activity. [Related pubchem assays: 784 ]; assay type: functional
[2] = molecular target: Eukaryotic translation initiation factor 4H (Homo sapiens, UniProt Q15056); test: eIF4H binding inhibition – biochemical, uHTS, fluorescence polarization, translation initiation inhibitor project, primary screen (AID 2012)
[3] = molecular target: Polyadenylate-binding protein 1 (Homo sapiens, UniProt P11940); test: blockers of PABP interaction with poly(A) – biochemical, fluorescence polarization, […] (AID 2014)
Sequence of Polyadenylate-binding protein 1 (P11940 whole entry): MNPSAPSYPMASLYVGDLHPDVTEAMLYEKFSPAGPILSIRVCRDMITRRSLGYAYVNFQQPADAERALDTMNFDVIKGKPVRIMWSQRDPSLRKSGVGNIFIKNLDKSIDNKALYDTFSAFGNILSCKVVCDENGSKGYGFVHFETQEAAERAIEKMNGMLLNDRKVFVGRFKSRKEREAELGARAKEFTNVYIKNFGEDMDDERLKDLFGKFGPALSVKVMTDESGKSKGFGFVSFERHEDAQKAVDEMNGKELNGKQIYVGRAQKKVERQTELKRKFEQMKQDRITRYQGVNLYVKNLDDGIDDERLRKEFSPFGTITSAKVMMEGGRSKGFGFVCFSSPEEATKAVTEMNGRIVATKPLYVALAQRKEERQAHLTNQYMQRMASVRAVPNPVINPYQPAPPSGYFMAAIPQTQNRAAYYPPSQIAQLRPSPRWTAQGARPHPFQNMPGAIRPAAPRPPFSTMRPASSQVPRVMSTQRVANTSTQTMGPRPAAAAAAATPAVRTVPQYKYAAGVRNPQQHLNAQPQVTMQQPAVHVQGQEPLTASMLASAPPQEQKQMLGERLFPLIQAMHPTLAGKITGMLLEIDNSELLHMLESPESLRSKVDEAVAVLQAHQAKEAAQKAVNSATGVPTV

[4] = molecular target: Procathepsin L (Homo sapiens, UniProt P07711)
[5] = molecular target: Aspartyl aminopeptidase (Plasmodium falciparum 3D7, UniProt Q8I2J3)
[6] = molecular target: T1, Voltage-gated N-type calcium channel alpha-1B subunit/Amyloid beta A4 precursor protein-binding family A member 1 (Homo sapiens, UniProt Q00975+Q02410); test: disruptors of Mint-PDZ/N-type channel peptide interaction – biochemical, HTRF, set 2, SAR follow-up (AID 434980); assay type: functional
T1 sequence (Q00975 whole entry): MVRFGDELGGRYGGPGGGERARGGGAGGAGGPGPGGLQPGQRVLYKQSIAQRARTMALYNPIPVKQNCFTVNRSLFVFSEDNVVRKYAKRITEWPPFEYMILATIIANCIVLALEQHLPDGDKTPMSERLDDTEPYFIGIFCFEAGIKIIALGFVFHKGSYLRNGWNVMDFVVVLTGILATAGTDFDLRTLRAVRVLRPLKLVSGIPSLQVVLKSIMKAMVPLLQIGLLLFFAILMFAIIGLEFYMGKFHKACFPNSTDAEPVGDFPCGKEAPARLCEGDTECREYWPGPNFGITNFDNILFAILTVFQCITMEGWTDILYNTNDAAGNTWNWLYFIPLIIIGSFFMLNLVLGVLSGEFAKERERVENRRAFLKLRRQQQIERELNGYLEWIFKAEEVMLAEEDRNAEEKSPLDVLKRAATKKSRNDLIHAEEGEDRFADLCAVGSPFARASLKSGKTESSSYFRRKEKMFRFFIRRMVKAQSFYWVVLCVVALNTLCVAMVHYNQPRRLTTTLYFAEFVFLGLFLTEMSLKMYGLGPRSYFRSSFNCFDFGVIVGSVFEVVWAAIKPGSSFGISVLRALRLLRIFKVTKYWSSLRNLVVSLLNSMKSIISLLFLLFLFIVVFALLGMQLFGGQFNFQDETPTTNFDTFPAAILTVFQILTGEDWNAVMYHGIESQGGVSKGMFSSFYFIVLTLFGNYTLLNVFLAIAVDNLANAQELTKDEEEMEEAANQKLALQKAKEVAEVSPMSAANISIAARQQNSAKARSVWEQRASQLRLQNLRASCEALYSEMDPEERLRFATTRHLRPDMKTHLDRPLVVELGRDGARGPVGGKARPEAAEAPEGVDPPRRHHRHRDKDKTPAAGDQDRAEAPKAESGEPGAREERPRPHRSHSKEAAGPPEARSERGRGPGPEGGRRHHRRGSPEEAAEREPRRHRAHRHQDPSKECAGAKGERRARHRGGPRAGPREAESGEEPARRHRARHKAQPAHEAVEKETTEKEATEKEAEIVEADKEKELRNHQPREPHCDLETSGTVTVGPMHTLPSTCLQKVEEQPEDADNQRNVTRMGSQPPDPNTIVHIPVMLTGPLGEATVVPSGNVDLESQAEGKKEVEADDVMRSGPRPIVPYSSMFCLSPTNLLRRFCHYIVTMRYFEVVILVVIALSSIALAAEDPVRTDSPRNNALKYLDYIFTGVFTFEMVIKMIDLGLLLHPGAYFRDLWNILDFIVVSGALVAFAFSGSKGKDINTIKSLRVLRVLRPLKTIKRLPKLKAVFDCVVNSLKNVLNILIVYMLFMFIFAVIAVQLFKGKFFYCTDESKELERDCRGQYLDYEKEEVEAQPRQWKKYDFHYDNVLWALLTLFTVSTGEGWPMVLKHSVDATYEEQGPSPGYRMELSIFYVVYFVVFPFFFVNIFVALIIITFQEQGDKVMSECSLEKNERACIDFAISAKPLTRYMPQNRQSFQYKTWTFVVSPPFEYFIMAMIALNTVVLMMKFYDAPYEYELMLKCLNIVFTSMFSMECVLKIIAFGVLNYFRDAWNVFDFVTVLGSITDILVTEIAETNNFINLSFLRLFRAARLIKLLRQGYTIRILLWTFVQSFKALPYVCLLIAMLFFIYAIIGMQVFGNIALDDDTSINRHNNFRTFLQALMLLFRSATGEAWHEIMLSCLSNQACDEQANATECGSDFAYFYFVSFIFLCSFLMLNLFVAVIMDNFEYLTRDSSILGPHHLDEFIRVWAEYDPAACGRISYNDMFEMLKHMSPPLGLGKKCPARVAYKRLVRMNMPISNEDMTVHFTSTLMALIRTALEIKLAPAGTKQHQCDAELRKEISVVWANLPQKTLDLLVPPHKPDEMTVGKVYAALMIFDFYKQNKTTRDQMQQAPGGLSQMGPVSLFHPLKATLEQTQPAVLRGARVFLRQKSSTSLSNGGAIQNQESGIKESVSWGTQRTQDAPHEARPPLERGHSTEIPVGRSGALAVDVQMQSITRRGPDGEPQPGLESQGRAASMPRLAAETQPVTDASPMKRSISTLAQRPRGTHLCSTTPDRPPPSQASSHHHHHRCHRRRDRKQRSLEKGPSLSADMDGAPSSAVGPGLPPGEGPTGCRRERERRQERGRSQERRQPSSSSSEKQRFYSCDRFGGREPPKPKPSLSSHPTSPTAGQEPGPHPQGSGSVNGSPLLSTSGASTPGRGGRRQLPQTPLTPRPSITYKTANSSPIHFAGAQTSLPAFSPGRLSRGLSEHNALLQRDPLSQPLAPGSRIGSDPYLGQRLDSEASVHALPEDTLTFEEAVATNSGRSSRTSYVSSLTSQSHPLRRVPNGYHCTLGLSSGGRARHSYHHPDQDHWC
T1 sequence (Q02410 whole entry): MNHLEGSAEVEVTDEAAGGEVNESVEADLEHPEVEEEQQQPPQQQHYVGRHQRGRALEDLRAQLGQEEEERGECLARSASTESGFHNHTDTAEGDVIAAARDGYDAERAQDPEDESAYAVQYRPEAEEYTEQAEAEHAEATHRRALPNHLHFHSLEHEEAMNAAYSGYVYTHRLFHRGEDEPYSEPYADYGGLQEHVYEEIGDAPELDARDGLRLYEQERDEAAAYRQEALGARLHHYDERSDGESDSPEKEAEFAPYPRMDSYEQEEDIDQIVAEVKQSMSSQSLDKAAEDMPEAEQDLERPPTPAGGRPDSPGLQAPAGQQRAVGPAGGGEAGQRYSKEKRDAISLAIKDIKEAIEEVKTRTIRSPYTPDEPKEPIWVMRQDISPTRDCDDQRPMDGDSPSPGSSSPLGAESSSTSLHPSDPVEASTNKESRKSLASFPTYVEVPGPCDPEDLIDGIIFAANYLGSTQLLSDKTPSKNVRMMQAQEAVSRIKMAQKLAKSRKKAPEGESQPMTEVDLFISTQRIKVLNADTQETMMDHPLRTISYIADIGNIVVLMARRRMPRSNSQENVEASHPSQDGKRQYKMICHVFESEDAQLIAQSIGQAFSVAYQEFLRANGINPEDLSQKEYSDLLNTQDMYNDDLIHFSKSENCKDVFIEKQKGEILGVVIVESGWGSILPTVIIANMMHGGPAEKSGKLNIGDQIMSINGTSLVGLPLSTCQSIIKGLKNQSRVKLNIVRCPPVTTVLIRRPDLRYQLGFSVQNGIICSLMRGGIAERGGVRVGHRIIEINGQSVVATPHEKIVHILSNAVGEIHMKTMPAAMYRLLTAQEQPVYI

[7] = molecular target: T1, Voltage-gated N-type calcium channel alpha-1B subunit/Amyloid beta A4 precursor protein-binding family A member 1; test: disruptors of Mint-PDZ/N-type channel peptide interaction – biochemical, HTRF, SAR follow-up (AID 2489); assay type: functional
[8] = molecular target: Nonstructural protein 1 (Influenza A virus, UniProt Q194T2); assay type: functional, Influenza A virus (A/California/07/2009(H1N1))
Sequence of Nonstructural protein 1 (Q194T2 whole entry): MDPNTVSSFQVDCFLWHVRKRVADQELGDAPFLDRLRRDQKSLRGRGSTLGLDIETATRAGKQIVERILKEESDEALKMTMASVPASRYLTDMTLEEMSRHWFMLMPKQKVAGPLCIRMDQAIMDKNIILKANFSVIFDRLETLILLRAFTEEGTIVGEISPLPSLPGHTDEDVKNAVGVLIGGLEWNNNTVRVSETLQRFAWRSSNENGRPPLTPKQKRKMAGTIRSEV

[9] = molecular target: Glucose-6-phosphate 1-dehydrogenase (Homo sapiens, UniProt P11413); test: inhibition of Homo sapiens G6PD, dose series – biochemical, fluorescence, selectivity assay for P. falciparum G6PD inhibitor project, dose response (AID 504792); assay type: functional
[10] = molecular target: Cystic fibrosis transmembrane conductance regulator/Golgi-associated PDZ and coiled-coil motif-containing protein (Homo sapiens, UniProt P13569+Q9HD26); test: potency against CAL PDZ-peptide interaction – biochemical, fluorescence polarization, Cerulean-tagged CAL PDZ, cherry-picks, dose response (AID 504773)
[11] = molecular target: Mitochondrial peptide methionine sulfoxide reductase (Bos taurus, UniProt P54149); test: Absorbance-based biochemical high throughput dose response assay for activators of Methionine sulfoxide reductase A (MsrA).; assay type: functional
[12] = molecular target: T2, Rac GTPase-activating protein 1 (Homo sapiens, UniProt Q9H0H5); test: blockers of MgcRacGAP-driven Rac1 GTP hydrolysis – biochemical, ADP Hunter fluorescence, primary and confirmatory, confirmation (AID 624330); assay type: functional
T2 sequence (Q9H0H5 whole entry): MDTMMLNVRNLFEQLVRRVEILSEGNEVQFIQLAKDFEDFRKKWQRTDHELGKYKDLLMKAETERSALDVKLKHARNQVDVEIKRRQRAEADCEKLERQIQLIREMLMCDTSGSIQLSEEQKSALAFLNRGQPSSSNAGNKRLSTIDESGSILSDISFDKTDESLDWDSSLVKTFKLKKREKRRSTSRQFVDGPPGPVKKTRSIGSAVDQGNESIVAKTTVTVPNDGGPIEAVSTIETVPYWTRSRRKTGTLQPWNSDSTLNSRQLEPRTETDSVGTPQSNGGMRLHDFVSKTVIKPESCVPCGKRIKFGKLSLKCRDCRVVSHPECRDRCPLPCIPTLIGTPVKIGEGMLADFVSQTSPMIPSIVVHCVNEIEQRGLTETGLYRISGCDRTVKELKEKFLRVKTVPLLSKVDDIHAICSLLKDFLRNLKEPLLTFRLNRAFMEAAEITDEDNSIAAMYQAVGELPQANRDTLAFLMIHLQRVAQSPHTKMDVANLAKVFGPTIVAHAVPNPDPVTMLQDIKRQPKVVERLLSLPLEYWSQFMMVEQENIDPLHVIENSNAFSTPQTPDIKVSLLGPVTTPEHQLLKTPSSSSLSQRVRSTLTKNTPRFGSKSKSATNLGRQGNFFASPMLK

[13] = viability loss in HeLa cells – cytotoxicity control for MgcRacGAP inhibitor project, dose response (AID 624300); assay type: functional
[14] = molecular target: T3, Kappa-type opioid receptor (Homo sapiens, UniProt P41145); test: SAR analysis of small molecule agonists of the kappa opioid receptor via a luminescent beta-arrestin assay - Set 2. [Related pubchem assays (depositor defined):AID1777, AID1785, AID1786, AID1966, AID2133, AID2136, AID2284, AID449737]; assay type: functional
T3 sequence (P41145 whole entry): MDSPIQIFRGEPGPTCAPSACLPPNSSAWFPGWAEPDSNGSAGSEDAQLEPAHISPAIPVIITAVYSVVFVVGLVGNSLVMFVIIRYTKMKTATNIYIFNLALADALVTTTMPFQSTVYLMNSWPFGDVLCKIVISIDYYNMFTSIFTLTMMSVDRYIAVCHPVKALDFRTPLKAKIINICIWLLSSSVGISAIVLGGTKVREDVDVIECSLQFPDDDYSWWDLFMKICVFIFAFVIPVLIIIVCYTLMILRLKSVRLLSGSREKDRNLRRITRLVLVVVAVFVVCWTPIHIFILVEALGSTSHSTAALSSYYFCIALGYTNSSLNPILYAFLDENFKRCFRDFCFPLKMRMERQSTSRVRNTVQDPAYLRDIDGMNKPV

[15] = molecular target: Delta-type opioid receptor (Homo sapiens, UniProt P41143); test: SAR Analysis of Antagonists of the DOR Receptor using an Image-Based Assay - Set 2. [Related pubchem assays (depositor defined):AID1777, AID1785, AID1786, AID1966, AID2133, AID2136, AID2284, AID2285, AID2357]; assay type: functional
Sequence of Delta-type opioid receptor (P41143 whole entry): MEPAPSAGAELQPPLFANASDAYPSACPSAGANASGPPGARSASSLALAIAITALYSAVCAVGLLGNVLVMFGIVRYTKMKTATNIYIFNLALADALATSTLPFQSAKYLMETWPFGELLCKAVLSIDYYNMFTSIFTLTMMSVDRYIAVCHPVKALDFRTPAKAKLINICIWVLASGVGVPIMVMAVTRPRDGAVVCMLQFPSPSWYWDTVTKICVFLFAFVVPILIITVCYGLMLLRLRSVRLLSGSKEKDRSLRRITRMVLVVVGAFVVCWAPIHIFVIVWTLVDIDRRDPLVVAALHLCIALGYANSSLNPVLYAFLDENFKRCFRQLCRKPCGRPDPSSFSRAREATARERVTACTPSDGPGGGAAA

[16] = molecular target: T3, Kappa-type opioid receptor; test: SAR analysis of Antagonists of the Kappa Opioid Receptor (KOR) using an Image-Based Assay - Set 2. [Related pubchem assays (depositor defined):AID1777, AID1785, AID1786, AID1966, AID2133, AID2136, AID2284, AID2285, AID2348]; assay type: functional
[17] = Luminescence Cell Based Dose Confirmation HTS to Identify Activators of 5'UTR Stem-Loop Driven Alpha-Synuclein mRNA Translation in H4 Neuroglioblastoma Cells. [Related pubchem assays (depositor defined):AID1813, AID1829]; assay type: functional; conditions: Homo sapiens
[18] = molecular target: T4, Small ubiquitin-related modifier 1 (Homo sapiens, UniProt P63165); test: SUMO1 protein-protein binding blockers, potency – biochemical, FRET, dose response (AID 624383); assay type: functional; conditions: read-out: IC50_Mean
T4 sequence (P63165 whole entry): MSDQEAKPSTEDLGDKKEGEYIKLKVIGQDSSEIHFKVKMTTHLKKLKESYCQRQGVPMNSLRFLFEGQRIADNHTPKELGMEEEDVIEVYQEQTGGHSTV

[19] = molecular target: T4, Small ubiquitin-related modifier 1; test: SUMO1 protein interaction blockers, potency – biochemical, fluorescence polarization, uHTS hits, dose response (AID 624382); assay type: functional; conditions: read-out: IC50_Mean

In the case of `CCOC(=O)C1(Cc2ccc(O)cc2)NC(c2ccccc2F)C2C(=O)N(C)C(=O)C21` (centres undefined), the EC50 [1] is reported as > 50 µM (not active).
For `COC(=O)c1c(NC(=O)/C=C/c2ccco2)sc2c1CCC2`, the IC50 [2] was 50.4 µM (active) and the IC50 [3] was > 100 µM (inactive).
In the case of `COC(=O)CN(n1cnnc1)S(=O)(=O)c1ccccc1`, the IC50 [4] is reported as > 59.6 µM (not active) and the IC50 [5] is reported as 0.497 µM (active).
In the case of `COc1ccccc1CCNC(=O)c1cc(-c2ccco2)nc2ccccc12`, the IC50 [6] is reported as 25.8 µM (active) and the IC50 [7] is reported as > 56.8 µM (inactive).
In the case of `CN(C)c1ccc(C=c2c3cc(O)ccc3n3c2cc(-c2ccccc2)[n+]3C)cc1`, the IC50 [8] is reported as 3.76 µM (active), the IC50 [9] is reported as > 80 µM (inactive) and the AC50 [10] is reported as 44.6 µM (active). For the same compound, the EC50 [11] was > 104 µM (inactive), the IC50 [12] was 20.1 µM (active) and the CC50 [13] was 50.7 µM (active).
For `CC[C@@](C)(C(=O)NC1CCCCC1)N(Cc1ccco1)C(=O)c1ccccn1`, the EC50 [14] was 0.128 µM (active), the IC50 [15] was > 32 µM (inactive) and the IC50 [16] was > 32 µM (inactive).
In the case of `Fc1ccc(Nc2nnc(-c3ccncc3)s2)cc1Cl`, the EC50 [17] is reported as 12 µM (active), the IC50 [18] is reported as 100 µM (inactive) and the IC50 [19] is reported as > 66.6 µM (inactive).
